Tests used:
Type in all cases: functional
[1] = tested on: K562; assay: Cytotoxicity against human K562 cells assessed as cellular growth at 10 uM by SRB assay
[2] = tested on: SK-MEL-5; assay: Cytotoxicity against human SK-MEL-5 cells assessed as cellular growth at 10 uM by SRB assay
[3] = tested on: UACC-62; assay: Cytotoxicity against human UACC62 cells assessed as cellular growth at 10 uM by SRB assay
[4] = tested on: RXF 393; assay: Cytotoxicity against human RXF393 cells assessed as cellular growth at 10 uM by SRB assay
[5] = tested on: IGROV-1; assay: Cytotoxicity against human IGROV1 cells assessed as cellular growth at 10 uM by SRB assay
[6] = tested on: MOLT-4; assay: Cytotoxicity against human MOLT4 cells assessed as cellular growth at 10 uM by SRB assay
[7] = tested on: COLO 205; assay: Cytotoxicity against human COLO205 cells assessed as cellular growth at 10 uM by SRB assay
[8] = tested on: TK-10; assay: Cytotoxicity against human TK10 cells assessed as cellular growth at 10 uM by SRB assay
[9] = tested on: HOP-62; assay: Cytotoxicity against human HOP62 cells assessed as cellular growth at 10 uM by SRB assay
[10] = tested on: SN12C; assay: Cytotoxicity against human SN12C cells assessed as cellular growth at 10 uM by SRB assay
[11] = tested on: CAKI-1; assay: Cytotoxicity against human Caki1 cells assessed as cellular growth at 10 uM by SRB assay
[12] = tested on: MCF7; assay: Cytotoxicity against human MCF7 cells assessed as cellular growth at 10 uM by SRB assay
[13] = tested on: SF-539; assay: Cytotoxicity against human SF539 cells assessed as cellular growth at 10 uM by SRB assay
[14] = tested on: OVCAR-8; assay: Cytotoxicity against human OVCAR8 cells assessed as cellular growth at 10 uM by SRB assay
[15] = tested on: HCT-116; assay: Cytotoxicity against human HCT116 cells assessed as cellular growth at 10 uM by SRB assay
[16] = tested on: NCI-H460; assay: Cytotoxicity against human NCI-H460 cells assessed as cellular growth at 10 uM by SRB assay
[17] = tested on: SNB-19; assay: Cytotoxicity against human SNB19 cells assessed as cellular growth at 10 uM by SRB assay
[18] = tested on: UO-31; assay: Cytotoxicity against human UO31 cells assessed as cellular growth at 10 uM by SRB assay
[19] = tested on: SR; assay: Cytotoxicity against human SR cells assessed as cellular growth at 10 uM by SRB assay
[20] = tested on: NCI-H23; assay: Cytotoxicity against human NCI-H23 cells assessed as cellular growth at 10 uM by SRB assay
[21] = tested on: MDA-MB-231; assay: Cytotoxicity against human MDA-MB-231 cells assessed as cellular growth at 10 uM by SRB assay
[22] = tested on: Hs-578T; assay: Cytotoxicity against human Hs578T cells assessed as cellular growth at 10 uM by SRB assay
[23] = tested on: HCT-15; assay: Cytotoxicity against human HCT15 cells assessed as cellular growth at 10 uM by SRB assay
[24] = tested on: SK-OV-3; assay: Cytotoxicity against human SKOV3 cells assessed as cellular growth at 10 uM by SRB assay
[25] = tested on: LOX IMVI; assay: Cytotoxicity against human LOXIMVI cells assessed as cellular growth at 10 uM by SRB assay
[26] = tested on: T47D; assay: Cytotoxicity against human T47D cells assessed as cellular growth at 10 uM by SRB assay
[27] = Cytotoxicity against human NCI-ADR-RES cells assessed as cellular growth at 10 uM by SRB assay
[28] = tested on: SK-MEL-2; assay: Cytotoxicity against human SK-MEL-2 cells assessed as cellular growth at 10 uM by SRB assay
[29] = tested on: 786-0; assay: Cytotoxicity against human 786-0 cells assessed as cellular growth at 10 uM by SRB assay
[30] = tested on: HL-60(TB); assay: Cytotoxicity against human HL-60(TB) cells assessed as cellular growth at 10 uM by SRB assay
[31] = tested on: OVCAR-3; assay: Cytotoxicity against human OVCAR3 cells assessed as cellular growth at 10 uM by SRB assay
[32] = tested on: EKVX; assay: Cytotoxicity against human EKVX cells assessed as cellular growth at 10 uM by SRB assay
[33] = tested on: MDA-MB-468; assay: Cytotoxicity against human MDA-MB-468 cells assessed as cellular growth at 10 uM by SRB assay
[34] = tested on: NCI-H226; assay: Cytotoxicity against human NCI-H226 cells assessed as cellular growth at 10 uM by SRB assay
[35] = tested on: U-251; assay: Cytotoxicity against human U251 cells assessed as cellular growth at 10 uM by SRB assay
[36] = tested on: NCI-H522; assay: Cytotoxicity against human NCI-H522 cells assessed as cellular growth at 10 uM by SRB assay
[37] = tested on: SF-295; assay: Cytotoxicity against human SF295 cells assessed as cellular growth at 10 uM by SRB assay
[38] = tested on: NCI-H322M; assay: Cytotoxicity against human NCI-H322M cells assessed as cellular growth at 10 uM by SRB assay
[39] = tested on: SF-268; assay: Cytotoxicity against human SF268 cells assessed as cellular growth at 10 uM by SRB assay
[40] = tested on: RPMI-8226; assay: Cytotoxicity against human RPMI8226 cells assessed as cellular growth at 10 uM by SRB assay
[41] = tested on: HT-29; assay: Cytotoxicity against human HT-29 cells assessed as cellular growth at 10 uM by SRB assay
[42] = tested on: SK-MEL-28; assay: Cytotoxicity against human SK-MEL-28 cells assessed as cellular growth at 10 uM by SRB assay
[43] = tested on: M14; assay: Cytotoxicity against human M14 cells assessed as cellular growth at 10 uM by SRB assay
[44] = tested on: KM12; assay: Cytotoxicity against human KM12 cells assessed as cellular growth at 10 uM by SRB assay
[45] = tested on: OVCAR-5; assay: Cytotoxicity against human OVCAR5 cells assessed as cellular growth at 10 uM by SRB assay
[46] = tested on: SNB-75; assay: Cytotoxicity against human SNB75 cells assessed as cellular growth at 10 uM by SRB assay
[47] = tested on: ACHN; assay: Cytotoxicity against human ACHN cells assessed as cellular growth at 10 uM by SRB assay
[48] = tested on: UACC-257; assay: Cytotoxicity against human UACC257 cells assessed as cellular growth at 10 uM by SRB assay
[49] = tested on: SW-620; assay: Cytotoxicity against human SW620 cells assessed as cellular growth at 10 uM by SRB assay
[50] = tested on: PC-3; assay: Cytotoxicity against human PC3 cells assessed as cellular growth at 10 uM by SRB assay
[51] = tested on: Malme-3M; assay: Cytotoxicity against human MALME-3M cells assessed as cellular growth at 10 uM by SRB assay
[52] = tested on: BT-549; assay: Cytotoxicity against human BT549 cells assessed as cellular growth at 10 uM by SRB assay
[53] = tested on: CCRF-CEM; assay: Cytotoxicity against human CCRF-CEM cells assessed as cellular growth at 10 uM by SRB assay
[54] = tested on: MDA-MB-435; assay: Cytotoxicity against human MDA-MB-435 cells assessed as cellular growth at 10 uM by SRB assay
[55] = tested on: HCC 2998; assay: Cytotoxicity against human HCC2998 cells assessed as cellular growth at 10 uM by SRB assay
[56] = tested on: DU-145; assay: Cytotoxicity against human DU145 cells assessed as cellular growth at 10 uM by SRB assay
[57] = tested on: A549; assay: Cytotoxicity against human A549 cells assessed as cellular growth at 10 uM by SRB assay
[58] = tested on: A498; assay: Cytotoxicity against human A498 cells assessed as cellular growth at 10 uM by SRB assay

O=c1/c(=C/c2ccccc2Cl)sc2nc(-c3ccccc3)nn12
Activity [1]: 48.93% | Activity [2]: 93.49% | Activity [3]: 83.77% | Activity [4]: 99.76% | Activity [5]: 96.71% | Activity [6]: 69.85% | Activity [7]: 113.47% | Activity [8]: 123.92% | Activity [9]: 103.3% | Activity [10]: 94.39% | Activity [11]: 98.22% | Activity [12]: 91.04% | Activity [13]: 94.89% | Activity [14]: 97.99% | Activity [15]: 72.43% | Activity [16]: 99.8% | Activity [17]: 90.58% | Activity [18]: 58.67% | Activity [19]: 45.36% | Activity [20]: 86.7% | Activity [21]: 90.97% | Activity [22]: 89.46% | Activity [23]: 79.8% | Activity [24]: 104.04% | Activity [25]: 63.33% | Activity [26]: 90.39% | Activity [27]: 90.47% | Activity [28]: 100.14% | Activity [29]: 101.12% | Activity [30]: 66.88% | Activity [31]: 108.39% | Activity [32]: 99.45% | Activity [33]: 96.99% | Activity [34]: 100.04% | Activity [35]: 89.87% | Activity [36]: 85.92% | Activity [37]: 99.98% | Activity [38]: 96.56% | Activity [39]: 91.24% | Activity [40]: 50.72% | Activity [41]: 112.54% | Activity [42]: 109.04% | Activity [43]: 76.15% | Activity [44]: 89.57% | Activity [45]: 119.68% | Activity [46]: 64.38% | Activity [47]: 97.57% | Activity [48]: 85.66% | Activity [49]: 107.46% | Activity [50]: 72.09% | Activity [51]: 92.95% | Activity [52]: 91.77% | Activity [53]: 56.07% | Activity [54]: 78.08% | Activity [55]: 104.88% | Activity [56]: 92.88% | Activity [57]: 87.55%

Clc1cccc(-c2nc(-c3cccs3)no2)c1
Activity [1]: 100.73% | Activity [2]: 87.95% | Activity [3]: 88.07% | Activity [4]: 114.21% | Activity [5]: 77.14% | Activity [6]: 96.35% | Activity [7]: 109.49% | Activity [8]: 74.63% | Activity [9]: 85.92% | Activity [10]: 100.21% | Activity [11]: 99.54% | Activity [12]: 33.74% | Activity [13]: 102.16% | Activity [14]: 101.14% | Activity [15]: 97.8% | Activity [16]: 97.36% | Activity [17]: 105.12% | Activity [18]: 71.35% | Activity [19]: 100.52% | Activity [20]: 89.88% | Activity [21]: 84.18% | Activity [22]: 99.53% | Activity [23]: 105.75% | Activity [24]: 99.21% | Activity [25]: 94.7% | Activity [26]: 56.93% | Activity [27]: 103.45% | Activity [28]: 103.17% | Activity [29]: 94.52% | Activity [30]: 108.47% | Activity [31]: 102.94% | Activity [32]: 85.39% | Activity [33]: 44.69% | Activity [34]: 97.3% | Activity [35]: 84.62% | Activity [36]: 85.77% | Activity [37]: 108.42% | Activity [38]: 99.44% | Activity [39]: 102.09% | Activity [40]: 95.28% | Activity [41]: 95.99% | Activity [42]: 111.9% | Activity [43]: 105.36% | Activity [44]: 102.96% | Activity [58]: 107.84% | Activity [46]: 88.55% | Activity [47]: 101.08% | Activity [48]: 86.41% | Activity [49]: 91.04% | Activity [50]: 84.44% | Activity [51]: 111.38% | Activity [52]: 101.91% | Activity [53]: 91.91% | Activity [54]: 106.73% | Activity [55]: 102.03% | Activity [56]: 97.4% | Activity [57]: 94.77%
